Values of other authors, collected in patent US11752097B2, “N-acetylcysteine compositions and methods” (Endo Ventures Limited, priority 2020, dated 2023).
Where two headings read alike, the source gives them in different places.

Experiments:
[1] = system: acetaminophen-overdose-induced hepatotoxicity; conditions: in vivo
[2] = ingestion of 10-15 g in a single dose
[3] = Fe^3+
[4] = Cu^2+
[5] = Ni^2+
[6] = Zn^2+
[7] = Co^2+
[8] = Cd^2+
[9] = Hg^2+
[10] = Mn^2+
[11] = pH 7, RT; reaction with Hydroxyl radical (^•OH)
[12] = pH 7, RT; reaction with Superoxide anion (O2^•−)
[13] = pH 7.4, 25° C.
[14] = pH 7.4, 37° C.
[15] = pH 7.4, RT
[16] = pH 7.4, 37° C.; reaction with Nitroxyl (HNO)
[17] = pH 7, 25° C.
[18] = Cr^3+
[19] = following intravenous administration
[20] = not given; remark: listed apart in the source
[21] = not given; remark: listed apart in the source
[22] = ambient light
[23] = not given; remark: listed apart in the source
[24] = 25° C. and 0.12 mol · dm^−3 ionic strength (NaClO4)
[25] = 25° C. and 0.1 mol · dm^−3 ionic strength (KNO3)
[26] = 37° C. and 0.15 mol · dm^−3 ionic strength (NaCl)

CC(=O)N[C@H](CS)C(=O)O (single isomer, unassigned) [D-isomer of acetylcysteine]
Activity of isomer (prevention of hepatotoxicity) [1]: not prevent hepatotoxicity
Activity of isomer (prevention of hepatotoxicity) ([1]; listed as D-isomer): inactive

CC(=O)Nc1ccc(O)cc1 [acetaminophen, Acetaminophen]
time to hepatic damage after overdose [2]: 2 to 5 days

O=C(O)CN(CCN(CC(=O)O)CC(=O)O)CCN(CC(=O)O)CC(=O)O [DTPA, diethylenetriaminepentaacetic acid]
Complex formation constant (log K) ([3]; conditions not given): 28.60
Complex formation constant (log K) ([4]; conditions not given): 21.53
Complex formation constant (log K) ([5]; conditions not given): 20.32
Complex formation constant (log K) ([6]; conditions not given): 18.75
Complex formation constant (log K) ([7]; conditions not given): 18.40
Complex formation constant (log K) ([8]; conditions not given): 19.31
Complex formation constant (log K) ([9]; conditions not given): 27.00
Complex formation constant (log K) ([10]; conditions not given): 15.60

CC(=O)N[C@@H](CS)C(=O)O [Acetylcysteine, N-acetyl-L-cysteine]
Rate constant [11]: 1.36e+10 M⁻¹ s⁻¹
Rate constant [12]: 68 ± 6 M⁻¹ s⁻¹
Rate constant [13]: 0.85 ± 0.09 M⁻¹ s⁻¹
Rate constant [14]: 415 ± 10 M⁻¹ s⁻¹
Rate constant ([14]; reaction with Peroxynitrite): 415 ± 10 M⁻¹ s⁻¹
Rate constant [15]: ~1e+07 M⁻¹ s⁻¹
Rate constant [16]: 500000 M⁻¹ s⁻¹
Rate constant [17]: (1.36 ± 0.2) × 10^4 M^−1 s^−1
Complex formation constant (log K) [3, 24]: 10.58
Complex formation constant (log K) [4, 25]: 9.02
Complex formation constant (log K) [4, 26]: 6.64
Complex formation constant (log K) [5, 24]: 5.02
Complex formation constant (log K) [5, 26]: 4.86
Complex formation constant (log K) [6, 25]: 7.04
Complex formation constant (log K) [6, 26]: 6.23
Complex formation constant (log K) [7, 24]: 4.18
Complex formation constant (log K) [7, 26]: 4.28
Complex formation constant (log K) [18, 24]: 8.26
Complex formation constant (log K) [8, 25]: 7.25
Complex formation constant (log K) [9, 25]: 11.23
Complex formation constant (log K) [10, 26]: 3.64
half-life (t1/2) (following an intravenous administration): 5.7 h
administered acetylcysteine excreted in the urine unchanged (in vivo): 20-30%
Potential adverse reactions [19]: acute flushing and erythema of the skin, and anaphylactoid reactions
Solubility: volume of alcohol for 1 gram ([20]; 1 gram in alcohol): 4 mL
Solubility: volume of water for 1 gram ([20]; 1 gram in water): 5 mL
Solubility in chloroform ([20]; chloroform): insoluble
Solubility in ether ([20]; ether): insoluble
redox potential ([21]; relative to Glutathione (reduced GSH/oxidized GSSG) system as a reference standard): +63 mV
Light stability [22]: stable in ambient light
Reaction of solutions with contact materials ([23]; contact with rubber, some metals (particularly iron and copper surfaces), and/or autoclaving): discoloration and hydrogen sulfide generation
Reaction with contact materials ([23]; glass, plastic, aluminum, anodized aluminum, chromed metal and stainless steel): does not react
Activity of isomer (prevention of hepatotoxicity) [1]: active

O=C(O)CN(CCN(CC(=O)O)CC(=O)O)CC(=O)O [EDTA, Ethylenediaminetetraacetic acid]
Complex formation constant (log K) ([3]; conditions not given): 25.10
Complex formation constant (log K) ([4]; conditions not given): 18.80
Complex formation constant (log K) ([5]; conditions not given): 18.62
Complex formation constant (log K) ([6]; conditions not given): 16.50
Complex formation constant (log K) ([7]; conditions not given): 16.31
Complex formation constant (log K) ([18]; conditions not given): 23.40
Complex formation constant (log K) ([8]; conditions not given): 16.46
Complex formation constant (log K) ([9]; conditions not given): 21.80
Complex formation constant (log K) ([10]; conditions not given): 14.04

N[C@@H](CCC(=O)N[C@@H](CS)C(=O)NCC(=O)O)C(=O)O [Glutathione]
experimental redox potential ([21]; in the cytosol): −289 mV
